The test system of test [1] is IL-12 induced STAT4 phophorylation mediated by TYK2/JAK2 (heterodimeric complex). Kind of test: IL-12 Induced pSTAT4 in Human PBMC. The class given is cell-based. Conditions: 1.7 ng/mL IL-12 for 30 minutes, 1 hr compound preincubation. The protocol: (§1) Human PBMC were isolated from buffy coat and were stored frozen for assays as needed. Cells for assay were thawed and resuspended in complete media containing serum, then cells were diluted to 1.67 E6 cells/mL so that 120 μl per well is 200,000 cells. 15 μl of compound or DMSO was added to the well at the desired concentrations and incubated at 1 hr at 37 C. 15 μl of stimulus (final concentration of 1.7 ng/mL IL-12) was added for 30 minutes prior to pSTAT4 and total STAT4 analysis using cell lysates prepared and analyzed by MSD reagents as per manufacturer protocol. The final DMSO concentration of compound in the assay was 0.1%.
The IL-12 Induced pSTAT4 assay evaluates the inhibition of IL-12 induced STAT4 phophorylation mediated by TYK2/JAK2 (heterodimeric complex).

In a further test the target is TYK2 kinase domain (JH1) (Homo sapiens (Human), UniProt P29597). Put plainly: TYK2 Radioactive Kinase Assay. The class given is biochemical. As to conditions: compound at 10 μM; ATP at 10 μM; 120 min at room temp. The protocol: (§2) Peptide substrate, [KKSRGDYMTMQIG], (20 μM) was prepared in reaction buffer (20 mM Hepes pH 7.5, 10 mM MgCl2, 1 mM EGTA, 0.02% Brij35, 0.02 mg/mL BSA, 0.1 mM […], 2 mM DTT, 1% DMSO). TYK2 (Invitrogen) kinase was added, followed by compounds in DMSO. ^33PATP was added to initiate the reaction in ATP at 10 μM. The kinase reaction was incubated for 120 min at room temp and reactions were spotted onto P81 ion exchange paper (Whatman #3698-915), and then washed extensively in 0.75% phosphoric acid, prior to reading the radioactivity counts. For JAK2 (Invitrogen) kinase assay the peptide substrate poly[Glu:Tyr](4:1), 0.2 mg/ml was used, in the reaction carried out the same as for TYK2.
(§3) The TYK2 and JAK2 radioactive kinase assay measures the percent inhibition at the TYK2 kinase domain (JH1) and the percent inhibition at the JAK2 kinase domain (JH1). Results of the assay are expressed as percent inhibition at 10 μM.

Another test has as its target JAK2 kinase domain (JH1) (Homo sapiens (Human), UniProt O60674). Kind of test: JAK2 Radioactive Kinase Assay. The class given is biochemical. Conditions: compound at 10 μM; ATP at 10 μM; substrate poly[Glu:Tyr](4:1). The procedure:
as §2, §3

Test [2] has as its target human TYK2 (JH2domain-pseudokinase) (Homo sapiens (Human), UniProt P29597). Put plainly: TYK2 JH2 Domain Binding Assay (KINOMEscan). Conditions: 11-point 3-fold dilution, top concentration 30,000 nM, duplicate. The method in brief:
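Competition binding used an NFkB-DNA-tagged fusion of TYK2 JH2 (G556–D888) expressed in HEK293 extracts against an immobilised ligand, 1 h at room temperature. Bead-bound kinase was quantified by qPCR. Kd came from an 11-point 3-fold series with a 30,000 nM top concentration and 0.9% DMSO, Hill slope −1, run in duplicate.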

The test system of test [3] is GM-CSF induced STAT5 phopsphorylation mediated by the JAK2/JAK2 homodimeric complex. Put plainly: GM-CSF Induced pSTAT5 in Human PBMC. Conditions: 20 min, GM-CSF 5 ng/mL for 20 minutes, read-out: PBMC_GMCSF_pSTAT5 IC50. The class given is cell-based. The protocol:
as §1
Cells were prepared for analysis as in the above procedure and 15 μl of GM-CSF (final concentration 5 ng/mL) was added for 20 minutes prior to pSTAT5 and total STAT5 analysis using cell lysates prepared and analyzed by MSD reagents as per manufacturer protocol. The final DMSO concentration of compound in the assay was 0.1%.
The GM-CSF Induced pSTAT5 assay is a JAK2 cellular selectivity assay which evaluates inhibition of GM-CSF induced STAT5 phopsphorylation mediated by the JAK2/JAK2 homodimeric complex.

Consider 17 molecules from patent US11053241B2, “TYK2 inhibitors and uses thereof” (Nimbus Lakshmi, Inc., priority 2018, dated 2021).

Structures are written as SMILES.

Chain of human TYK2 (JH2domain-pseudokinase) (P29597 556-888): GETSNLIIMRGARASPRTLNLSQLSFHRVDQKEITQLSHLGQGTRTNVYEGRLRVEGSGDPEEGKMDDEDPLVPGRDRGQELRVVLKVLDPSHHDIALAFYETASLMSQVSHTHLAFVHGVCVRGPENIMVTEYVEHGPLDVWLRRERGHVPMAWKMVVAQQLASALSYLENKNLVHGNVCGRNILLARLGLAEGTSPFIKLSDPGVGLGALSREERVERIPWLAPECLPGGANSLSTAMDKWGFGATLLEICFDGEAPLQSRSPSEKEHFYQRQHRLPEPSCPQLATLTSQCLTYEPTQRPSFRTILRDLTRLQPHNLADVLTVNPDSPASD
Chain of JAK2 kinase domain (JH1) (O60674 849-1124): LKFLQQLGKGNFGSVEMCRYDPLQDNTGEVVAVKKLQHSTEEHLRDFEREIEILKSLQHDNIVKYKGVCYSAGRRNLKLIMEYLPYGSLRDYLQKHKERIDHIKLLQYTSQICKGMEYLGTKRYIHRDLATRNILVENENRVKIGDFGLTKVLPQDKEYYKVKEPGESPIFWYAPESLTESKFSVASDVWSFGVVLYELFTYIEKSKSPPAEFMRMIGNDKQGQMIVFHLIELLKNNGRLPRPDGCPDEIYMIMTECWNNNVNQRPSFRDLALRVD
Chain of TYK2 kinase domain (JH1) (P29597 897-1176): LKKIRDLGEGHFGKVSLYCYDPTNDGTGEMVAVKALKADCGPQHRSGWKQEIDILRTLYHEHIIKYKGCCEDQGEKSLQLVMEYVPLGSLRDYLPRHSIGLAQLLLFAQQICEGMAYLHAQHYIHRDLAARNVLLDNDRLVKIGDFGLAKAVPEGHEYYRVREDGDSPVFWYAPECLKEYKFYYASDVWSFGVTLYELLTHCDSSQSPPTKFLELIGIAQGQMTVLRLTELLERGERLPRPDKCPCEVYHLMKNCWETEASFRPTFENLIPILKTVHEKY

Usually IC50 stands for the midpoint of a concentration-inhibition curve. As usually defined, the inhibition is the percentage by which the read-out fell short of the control. One may read the Kd as the equilibrium constant for the complex coming apart. High values mean weaker binding, low ones tighter binding. Consider `CNC(=O)c1cnc(NC(=O)C2CC2)c2[nH]c(-c3ccc(C(=O)N4CCC4)cc3OC)cc12` [Compound I-24, 2-(4-(azetidine-1-carbonyl)-2-methoxyphenyl)-7-(cyclopropanecarboxamido)-N-methyl-1H-pyrrolo[2,3-c]pyridine-4-carboxamide], for which the IC50 in test [1] was below 100 nM. Moreover, the inhibition at 10 µM at TYK2 kinase domain (JH1) and at JAK2 kinase domain (JH1) was below 50% throughout. Further, the dissociation constant Kd in test [2] was below 0.2 nM.
On to `CNC(=O)c1cnc(NC(=O)C2CC2)c2[nH]c(-c3cccc(-c4cnn(C)c4)c3F)cc12` [Compound I-19, 7-(cyclopropanecarboxamido)-2-(2-fluoro-3-(1-methyl-1H-pyrazol-4-yl)phenyl)-N-methyl-1H-pyrrolo[2,3-c]pyridine-4-carboxamide], for which the IC50 in test [1] was below 100 nM; in test [3], above 300 nM. The inhibition at 10 µM at TYK2 kinase domain (JH1) and on JAK2 kinase domain (JH1) was below 50% each time. The molecule also returned a dissociation constant Kd in test [2] below 0.2 nM.
In the case of `CNC(=O)c1cnc(NC(=O)C2CC2)c2[nH]c(-c3ccccc3)cc12` [Compound I-1, 7-(cyclopropanecarboxamido)-N-methyl-2-phenyl-1H-pyrrolo[2,3-c]pyridine-4-carboxamide], the concentration for half-maximal inhibition (IC50) in test [1] was 500 to 1000 nM; in test [3], above 50000 nM. For the same molecule, the inhibition at 10 µM on TYK2 kinase domain (JH1) and at JAK2 kinase domain (JH1) was below 50% throughout. Also, the Kd in test [2] fell in the range of 1 to 10 nM.
`CNC(=O)c1cnc(NC(=O)C2CC2)c2[nH]c(-c3cccn(-c4ncc(C)s4)c3=O)cc12` [Compound I-54, 7-(cyclopropanecarboxamido)-N-methyl-2-(1-(5-methylthiazol-2-yl)-2-oxo-1,2-dihydropyridin-3-yl)-1H-pyrrolo[2,3-c]pyridine-4-carboxamide]: in test [1], the 50% inhibitory concentration (IC50) fell in the range of 100 to 500 nM. The molecule further displayed a Kd in test [2] below 0.2 nM.
Take `CNC(=O)c1cnc(NC(=O)C2CC2)c2[nH]c(-c3cccc(-c4ncn(C)n4)c3)cc12` [Compound I-2, 7-(cyclopropanecarboxamido)-N-methyl-2-(3-(1-methyl-1H-1,2,4-triazol-3-yl)phenyl)-1H-pyrrolo[2,3-c]pyridine-4-carboxamide]: the figures for the IC50 in test [1] and in test [3] were below 100 nM and above 50000 nM, respectively. For the same molecule, the inhibition at 10 µM on TYK2 kinase domain (JH1) and on JAK2 kinase domain (JH1) was below 50% each time. The molecule further returned a Kd in test [2] below 0.2 nM.
`CNC(=O)c1cnc(NC(=O)C2CC2)c2[nH]c(-c3ccc(C(=O)N4CCC4)cc3F)cc12` [Compound I-42, 2-(4-(azetidine-1-carbonyl)-2-fluorophenyl)-7-(cyclopropanecarboxamido)-N-methyl-1H-pyrrolo[2,3-c]pyridine-4-carboxamide] yielded an IC50 in test [1] below 100 nM. The molecule also returned a Kd in test [2] below 0.2 nM.
As for `CNC(=O)c1cnc(NC(=O)C2CC2)c2[nH]c(-c3cccc(-c4ncco4)c3F)cc12` [Compound I-23, 7-(cyclopropanecarboxamido)-2-(2-fluoro-3-(oxazol-2-yl)phenyl)-N-methyl-1H-pyrrolo[2,3-c]pyridine-4-carboxamide], the figures for the IC50 in test [1] and in test [3] were below 100 nM and above 50000 nM, respectively. Further, the inhibition at 10 µM on TYK2 kinase domain (JH1) and on JAK2 kinase domain (JH1) was below 50% in each case. Moreover, the Kd in test [2] is below 0.2 nM.
For `CNC(=O)c1cnc(NC(=O)C2CC2)c2[nH]c(-c3cccc(-c4cn(C)cn4)c3F)cc12` [Compound I-48, 7-(cyclopropanecarboxamido)-2-(2-fluoro-3-(1-methyl-1H-imidazol-4-yl)phenyl)-N-methyl-1H-pyrrolo[2,3-c]pyridine-4-carboxamide], the half-inhibitory concentration (IC50) in test [1] is below 100 nM. This molecule yielded a Kd in test [2] below 0.2 nM.
Turning to `CNC(=O)c1cnc(NC(=O)C2CC2)c2[nH]c(-c3ccccc3N3CCCS3(=O)=O)cc12` [Compound I-4, 7-(cyclopropanecarboxamido)-2-(2-(1,1-dioxidoisothiazolidin-2-yl)phenyl)-N-methyl-1H-pyrrolo[2,3-c]pyridine-4-carboxamide], the 50% inhibitory concentration (IC50) was below 100 nM in test [1] and above 12500 nM in test [3]. Further, the inhibition at 10 µM at TYK2 kinase domain (JH1) and on JAK2 kinase domain (JH1) was below 50% in each case. This molecule also displayed a Kd in test [2] below 0.2 nM.
Consider `CNC(=O)c1cnc(NC(=O)C2CC2)c2[nH]c(-c3cc(-c4nccs4)cnc3OC3CC3)cc12` [Compound I-39, 7-(cyclopropanecarboxamido)-2-(2-cyclopropoxy-5-(thiazol-2-yl)pyridin-3-yl)-N-methyl-1H-pyrrolo[2,3-c]pyridine-4-carboxamide], for which the inhibition at 10 µM on TYK2 kinase domain (JH1) and at JAK2 kinase domain (JH1) was below 50% throughout. The dissociation constant Kd in test [2] was 1 to 10 nM.
Turning to `CCOc1ncc(-c2ccn(C)n2)cc1-c1cc2c(C(=O)NC)cnc(NC(=O)C3CC3)c2[nH]1` [Compound I-37, 7-(cyclopropanecarboxamido)-2-(2-ethoxy-5-(1-methyl-1H-pyrazol-3-yl)pyridin-3-yl)-N-methyl-1H-pyrrolo[2,3-c]pyridine-4-carboxamide], the inhibition at 10 µM on TYK2 kinase domain (JH1) and at JAK2 kinase domain (JH1) was below 50% in each case. In test [2], this molecule had a Kd of 1 to 10 nM.
Molecule `CNC(=O)c1cnc(NC(=O)C2CC2)c2[nH]c(-c3cccc(-c4nnn(C)n4)c3F)cc12` [Compound I-52, 7-(cyclopropanecarboxamido)-2-(2-fluoro-3-(2-methyl-2H-tetrazol-5-yl)phenyl)-N-methyl-1H-pyrrolo[2,3-c]pyridine-4-carboxamide] yielded a 50% inhibitory concentration (IC50) in test [1] below 100 nM. Moreover, the dissociation constant Kd in test [2] was below 0.2 nM.
Consider `CCn1cc(-c2cc3c(C(=O)NC)cnc(NC(=O)C4CC4)c3[nH]2)ccc1=O` [Compound I-31, 7-(cyclopropanecarboxamido)-2-(1-ethyl-6-oxo-1,6-dihydropyridin-3-yl)-N-methyl-1H-pyrrolo[2,3-c]pyridine-4-carboxamide], for which the inhibition at 10 µM at TYK2 kinase domain (JH1) and on JAK2 kinase domain (JH1) was below 50% each time. This molecule also had an equilibrium dissociation constant (Kd) in test [2] of 1 to 10 nM.
On to `CNC(=O)c1cnc(NC(=O)C2CC2)c2[nH]c(-c3ccc(C4=NC(C)(C)CO4)cc3OC)cc12` [Compound I-9, 7-(cyclopropanecarboxamido)-2-(4-(4,4-dimethyl-4,5-dihydrooxazol-2-yl)-2-methoxyphenyl)-N-methyl-1H-pyrrolo[2,3-c]pyridine-4-carboxamide], for which the inhibition at 10 µM at TYK2 kinase domain (JH1) and at JAK2 kinase domain (JH1) was below 50% throughout. Further, in test [2], the Kd lay within 0.2 to 1 nM.
Turning to `Cn1cnc(-c2cccc(-c3cc4c(C(N)=O)cnc(NC(=O)C5CC5)c4[nH]3)c2)n1` [Compound I-12, 7-(cyclopropanecarboxamido)-2-(3-(1-methyl-1H-1,2,4-triazol-3-yl)phenyl)-1H-pyrrolo[2,3-c]pyridine-4-carboxamide], the IC50 in test [1] was below 100 nM; in test [3], above 300 nM. The inhibition at 10 µM on TYK2 kinase domain (JH1) and on JAK2 kinase domain (JH1) was above 90% throughout. In test [2], this molecule returned a dissociation constant (Kd) below 0.2 nM.
With `[2H]C([2H])([2H])NC(=O)c1cnc(NC(=O)C2CC2)c2[nH]c(-c3cccc(-c4ncn(C)n4)c3)cc12` [Compound I-6, 7-(cyclopropanecarboxamido)-N-(methyl-d3)-2-(3-(1-methyl-1H-1,2,4-triazol-3-yl)phenyl)-1H-pyrrolo[2,3-c]pyridine-4-carboxamide], the inhibition at 10 µM on TYK2 kinase domain (JH1) and on JAK2 kinase domain (JH1) was below 50% in each case. Also, in test [2], the Kd was below 0.2 nM.
With `CNC(=O)c1cnc(NC(=O)C2CC2)c2[nH]c(-c3cccc(-n4nccn4)c3)cc12` [Compound I-8, 2-(3-(2H-1,2,3-triazol-2-yl)phenyl)-7-(cyclopropanecarboxamido)-N-methyl-1H-pyrrolo[2,3-c]pyridine-4-carboxamide], the inhibition at 10 µM on TYK2 kinase domain (JH1) and on JAK2 kinase domain (JH1) was below 50% each time. The molecule further had a Kd in test [2] of 1 to 10 nM.
